From patent US5935928A, “Modified platelet factor-4” (Eli Lilly and Company, priority 1996, dated 1999)
One block for each molecule: values may come before it. Positions of bridges follow the written chain, without caps; N, C: chain ends. Chains are numbered I, II in the order given. No end group written: not given here.

Assay: Heparin-affinity chromatography (heparin binding)
Settings: heparin-sepharose; eluted in high-affinity fraction 0.7M to 2.0M NaCl
Excerpt: The eluted proteins are then contacted with a heparin affinity resin. The ordinarily skilled artisan will readily realize that this step is best achieved in a column chromatography mode. Heparin affinity columns are commercially available from some of the same vendors mentioned above. In this step, the molecules of interest, both MPF-4 or CPF-4, bind to the heparin column and are eluted using an increasing linear salt gradient. The preferred salt is NaCl, and the portion of the gradient that is preferably collected is the 0.1-2.0M portion. The more highly preferred portion of the gradient to collect is the 0.7-2.0M portion.
The C4-pool was further fractionated by heparin affinity chromatography on a Econo-pac™ 5 ml heparin-sepharose cartridge (BioRad, Richmond, Calif. 94804). The bound proteins were eluted by a linear gradient of 0 to 2.0M NaCl in phosphate buffer saline (PBS) at a flow rate of 2.0 ml/min. The proteins that eluted from the column were pooled into three fractions: (1) non-heparin binding (flow through), (2) low-affinity heparin binding (0 to 0.7M NaCl), and (3) high-affinity heparin binding (0.7M to 2.0M NaCl) fractions.
The high affinity heparin binding fraction (3) (0.7M to 2.0M NaCl) was applied to a Vydac™ 0.46×10 cm C-4 HPLC column (The Marshall Co.; Worthington, Ohio 43085), previously equilibrated with 27% acetonitrile, 0.1% TFA. […]

heparin binding: bind heparin
Molecule: MPF-4: Naturally-occurring 54 amino acid protein (SEQ ID NO:1), homologous with the 54 C-terminal residues of PF-4, beginning with Ser-17 (SQVRPRHITSLEVIKAGPHCPTAQLIATLKNGRKICLDLQAPLYKKIIKKLLES)

heparin binding: bind heparin
B1: CPF-4: Proteolytically cleaved, non-reduced PF-4: 16 amino acid chain (SEQ ID NO:2) disulfide bonded to the 54 amino acid chain of MPF-4 (protein)
chain 1: EAEEDGDLQCLCVKTT
chain 2: SQVRPRHITSLEVIKAGPHCPTAQLIATLKNGRKICLDLQAPLYKKIIKKLLES
modifications: disulfide I:10-II:20, I:12-II:36; not fully specified
